Measurements: patent publication US20230085307A1, “PYRIDAZINONE COMPOUND AND HERBICIDE” (NISSAN CHEMICAL CORPORATION, priority 2019, published 2023)

Legend:
late watergrass = experiment: Test Example 1: herbicidal activity, application before weed generation under submerged conditions (Table 16, symbol A); assay type: in vivo, late watergrass (Echinochloa oryzicola); conditions: amount of applied herbicide 320 g/ha
Method in brief: (§1)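 Alluvial soil was flooded to 4 cm depth, weed seeds were sown mixed and 2.5-leaf rice seedlings were transplanted. On sowing day, the compound's emulsion, diluted in water to a set dose, was applied to the water surface. Plants grew at 25–30 °C and were scored 0–5 after three weeks.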

oval-leafed pondweed = experiment: Test Example 1: herbicidal activity, application before weed generation under submerged conditions (Table 16, symbol C); assay type: in vivo, oval-leafed pondweed (Monochoria vaginalis); conditions: amount of applied herbicide 320 g/ha
Method in brief: as §1

Italian ryegrass [1] = experiment: Test Example 5: herbicidal effect by foliage application, plastic box (Table 20, symbol K); assay type: in vivo, Italian ryegrass (Lolium multiflorum); conditions: foliage application, 320 g/ha, three weeks after application
Method in brief: (§2)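 Post-emergence foliar test in sterilized diluvial soil. Compound applied as water-diluted emulsion at a predetermined rate to 14-day-old plants; evaluation at three weeks.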

persian speedwell [2] = experiment: Test Example 4: herbicidal effect by soil treatment (Table 19, symbol R); assay type: in vivo, Persian speedwell (Veronica persica); conditions: amount of applied herbicide 320 g/ha
Method in brief: (§3)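 Scoring uses the grading scale of an earlier test, three weeks post-application. Treatment consists of spraying a diluted emulsion formulation across the surface of sterilized diluvial soil in which seeds are buried near 1.5 cm deep; boxes are kept in a greenhouse between 25° C. and 30° C.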

persian speedwell [3] = experiment: Test Example 5: herbicidal effect by foliage application, plastic box (Table 20, symbol R); assay type: in vivo, Persian speedwell (Veronica persica); conditions: foliage application, 320 g/ha, three weeks after application
Method in brief: as §2

southern crabgrass [4] = experiment: Test Example 4: herbicidal effect by soil treatment (Table 19, symbol F); assay type: in vivo, southern crabgrass (Digitaria ciliaris); conditions: amount of applied herbicide 320 g/ha
Method in brief: as §3

Japanese bulrush = experiment: Test Example 1: herbicidal activity, application before weed generation under submerged conditions (Table 16, symbol B); assay type: in vivo, Japanese bulrush (Schoenoplectus juncoides); conditions: amount of applied herbicide 320 g/ha
Method in brief: as §1

green foxtail [5] = experiment: Test Example 4: herbicidal effect by soil treatment (Table 19, symbol G); assay type: in vivo, green foxtail (Setaria viridis); conditions: amount of applied herbicide 320 g/ha
Method in brief: as §3

Chinese sprangletop = experiment: Test Example 3: herbicidal effect by foliage application, Wagner pot (Table 18, symbol D); assay type: in vivo, chinese sprangletop (Leptochloa chinensis); conditions: 320 g/ha
Method in brief: (§4)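 Plants were sown in alluvial soil held under 0.1–0.5 cm standing water and grown 14 days in a greenhouse at 25–30 °C. An emulsifiable formulation, water-diluted to the set dose, was then sprayed onto the foliage, and effects were scored three weeks later using previously defined criteria.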

rice flat sedge = experiment: Test Example 3: herbicidal effect by foliage application, Wagner pot (Table 18, symbol E); assay type: in vivo, rice flat sedge (Cyperus iria); conditions: 320 g/ha
Method in brief: as §4

lambsquarters [6] = experiment: Test Example 5: herbicidal effect by foliage application, plastic box (Table 20, symbol O); assay type: in vivo, lambsquarters (Chenopodium album); conditions: foliage application, 320 g/ha, three weeks after application
Method in brief: as §2

wild oat [7] = experiment: Test Example 4: herbicidal effect by soil treatment (Table 19, symbol I); assay type: in vivo, wild oat (Avena fatua); conditions: amount of applied herbicide 320 g/ha
Method in brief: as §3

chickweed = experiment: Test Example 4: herbicidal effect by soil treatment (Table 19, symbol P); assay type: in vivo, common chickweed (Stellaria media); conditions: amount of applied herbicide 320 g/ha
Method in brief: as §3

wild oat [8] = experiment: Test Example 5: herbicidal effect by foliage application, plastic box (Table 20, symbol I); assay type: in vivo, wild oat (Avena fatua); conditions: foliage application, 320 g/ha, three weeks after application
Method in brief: as §2

blackgrass [9] = experiment: Test Example 5: herbicidal effect by foliage application, plastic box (Table 20, symbol J); assay type: in vivo, blackgrass (Alopecurus myosuroides); conditions: foliage application, 320 g/ha, three weeks after application
Method in brief: as §2

Italian ryegrass [10] = experiment: Test Example 4: herbicidal effect by soil treatment (Table 19, symbol K); assay type: in vivo, Italian ryegrass (Lolium multiflorum); conditions: amount of applied herbicide 320 g/ha
Method in brief: as §3

velvetleaf [11] = experiment: Test Example 5: herbicidal effect by foliage application, plastic box (Table 20, symbol M); assay type: in vivo, velvetleaf (Abutilon theophrasti); conditions: foliage application, 320 g/ha, three weeks after application
Method in brief: as §2

windgrass = experiment: Test Example 5: herbicidal effect by foliage application, plastic box (Table 20, symbol L); assay type: in vivo, windgrass (Apera spica-venti); conditions: foliage application, 320 g/ha, three weeks after application
Method in brief: as §2

redroot pigweed = experiment: Test Example 4: herbicidal effect by soil treatment (Table 19, symbol N); assay type: in vivo, redroot pigweed (Amaranthus retroflexus); conditions: amount of applied herbicide 320 g/ha
Method in brief: as §3

southern crabgrass [12] = experiment: Test Example 5: herbicidal effect by foliage application, plastic box (Table 20, symbol F); assay type: in vivo, southern crabgrass (Digitaria ciliaris); conditions: foliage application, 320 g/ha, three weeks after application
Method in brief: as §2

blackgrass [13] = experiment: Test Example 4: herbicidal effect by soil treatment (Table 19, symbol J); assay type: in vivo, blackgrass (Alopecurus myosuroides); conditions: amount of applied herbicide 320 g/ha
Method in brief: as §3

barnyard grass [14] = experiment: Test Example 4: herbicidal effect by soil treatment (Table 19, symbol H); assay type: in vivo, barnyard grass (Echinochloa crus-galli); conditions: amount of applied herbicide 320 g/ha
Method in brief: as §3

barnyard grass [15] = experiment: Test Example 5: herbicidal effect by foliage application, plastic box (Table 20, symbol H); assay type: in vivo, barnyard grass (Echinochloa crus-galli); conditions: foliage application, 320 g/ha, three weeks after application
Method in brief: as §2

velvetleaf [16] = experiment: Test Example 4: herbicidal effect by soil treatment (Table 19, symbol M); assay type: in vivo, velvetleaf (Abutilon theophrasti); conditions: amount of applied herbicide 320 g/ha
Method in brief: as §3

green foxtail [17] = experiment: Test Example 5: herbicidal effect by foliage application, plastic box (Table 20, symbol G); assay type: in vivo, green foxtail (Setaria viridis); conditions: foliage application, 320 g/ha, three weeks after application
Method in brief: as §2

lambsquarters [18] = experiment: Test Example 4: herbicidal effect by soil treatment (Table 19, symbol O); assay type: in vivo, lambsquarters (Chenopodium album); conditions: amount of applied herbicide 320 g/ha
Method in brief: as §3

barnyard grass [19] = experiment: Test Example 3: herbicidal effect by foliage application, Wagner pot (Table 18, symbol H); assay type: in vivo, barnyard grass (Echinochloa crus-galli); conditions: 320 g/ha
Method in brief: as §4

Q: Which results are given for `COc1cc2sc(-c3ccccc3OC)c(-c3c(O)c(C)nn(C)c3=O)c2cc1F` [5-064]?
A: Herbicidal effect, A: late watergrass (late watergrass): 2 (Herbicidal rate of 20% or more and less than 40%); Herbicidal effect, C: oval-leafed pondweed (oval-leafed pondweed): 0 (Herbicidal rate of 5% or less (almost no effect)); herbicidal effect on Italian ryegrass (K) (Italian ryegrass [1]): 3 (Herbicidal rate of 40% or more and less than 70%); R: persian speedwell, herbicidal effect grade (persian speedwell [2]): 5 (Herbicidal rate of 90% or more (almost completely withered)); herbicidal effect on persian speedwell (R) (persian speedwell [3]): 5 (Herbicidal rate of 90% or more (almost completely withered)); F: southern crabgrass, herbicidal effect grade (southern crabgrass [4]): 3 (Herbicidal rate of 40% or more and less than 70%); Herbicidal effect, B: Japanese bulrush (Japanese bulrush): 0 (Herbicidal rate of 5% or less (almost no effect)); G: green foxtail, herbicidal effect grade (green foxtail [5]): 4 (Herbicidal rate of 70% or more and less than 90%); herbicidal effect on Chinese sprangletop (D) (Chinese sprangletop): 2 (Herbicidal rate of 20% or more and less than 40%); herbicidal effect on rice flat sedge (E) (rice flat sedge): 5 (Herbicidal rate of 90% or more (almost completely withered)); herbicidal effect on lambsquarters (O) (lambsquarters [6]): 3 (Herbicidal rate of 40% or more and less than 70%); I: wild oat, herbicidal effect grade (wild oat [7]): 0 (Herbicidal rate of 5% or less (almost no effect)); P: chickweed, herbicidal effect grade (chickweed): 4 (Herbicidal rate of 70% or more and less than 90%); herbicidal effect on wild oat (I) (wild oat [8]): 4 (Herbicidal rate of 70% or more and less than 90%); herbicidal effect on blackgrass (J) (blackgrass [9]): 4 (Herbicidal rate of 70% or more and less than 90%); K: Italian ryegrass, herbicidal effect grade (Italian ryegrass [10]): 0 (Herbicidal rate of 5% or less (almost no effect)); herbicidal effect on velvetleaf (M) (velvetleaf [11]): 4 (Herbicidal rate of 70% or more and less than 90%); herbicidal effect on windgrass (L) (windgrass): 5 (Herbicidal rate of 90% or more (almost completely withered)); N: redroot pigweed, herbicidal effect grade (redroot pigweed): 4 (Herbicidal rate of 70% or more and less than 90%); herbicidal effect on southern crabgrass (F) (southern crabgrass [12]): 4 (Herbicidal rate of 70% or more and less than 90%); J: blackgrass, herbicidal effect grade (blackgrass [13]): 1 (Herbicidal rate of 5% or more and less than 20%); H: barnyard grass, herbicidal effect grade (barnyard grass [14]): 4 (Herbicidal rate of 70% or more and less than 90%); herbicidal effect on barnyard grass (H) (barnyard grass [15]): 4 (Herbicidal rate of 70% or more and less than 90%); M: velvetleaf, herbicidal effect grade (velvetleaf [16]): 2 (Herbicidal rate of 20% or more and less than 40%); herbicidal effect on green foxtail (G) (green foxtail [17]): 5 (Herbicidal rate of 90% or more (almost completely withered)); O: lambsquarters, herbicidal effect grade (lambsquarters [18]): 3 (Herbicidal rate of 40% or more and less than 70%); herbicidal effect on barnyard grass (H) (barnyard grass [19]): 5 (Herbicidal rate of 90% or more (almost completely withered))
